These are literature values, as cited in patent publication US9603803B2, “Process for preparing spray dried formulations of 4-[[6-amino-5-bromo-2-[(4-cyanophenyl)amino]-4-pyrimidinyl]oxy]-3,5-dimethylbenzonitrile” (JANSSEN SCIENCES IRELAND UC, priority 2006, dated 2017).

Consider `Cc1cc(C#N)cc(C)c1Oc1nc(Nc2ccc(C#N)cc2)nc(N)c1Br` [TMC125, 4-[[6-amino-5-bromo-2-[(4-cyanophenyl)amino]-4-pyrimidinyl]oxy]-3,5-dimethylbenzonitrile], for which the water-solubility result is reported as “poor”. For the same molecule, the “activity against many mutated variants” value in the series with many mutated variants is “pronounced activity”. Also, in the series on wild type HIV, the “activity against wild type HIV” value was “pronounced activity”.
